US20240279218A1 (Hoffmann-La Roche Inc., priority 2016, published 2024)
Like-named read-outs stand apart in the source and are kept apart here.

What was measured:
h-GABA-A α5β3γ2 [1] = target: T1, h-GABA-A α5β3γ2 (Homo sapiens (Human), UniProt P18507+P31644); assay: [3H]flumazenil competition binding assay, membranes of HEK293 cells expressing human GABAA receptors
Procedure, shortened: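 Displacement of [3H]flumazenil from membranes of HEK293 cells transiently expressing human α5β3γ2 receptors, in Krebs-tris buffer pH 7.5. Incubation to equilibrium, 1 h at 4° C., then filtration and scintillation counting. Ki is the mean of two determinations.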

h-GABA-A α5β3γ2 [2] = target: T1, h-GABA-A α5β3γ2; assay: Two-electrode voltage clamp electrophysiology in Xenopus oocytes expressing GABAA receptors, modulation of GABA EC20 current; format: cell-based
Procedure, shortened: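 Values are % modulation of an EC20 GABA response, derived point by point from the ratio of compound-exposed versus control current traces (extremum taken, 100×(fold−1)). Recordings used oocytes injected with human α5, β3, γ2 mRNA, clamped at −80 mV at room temperature, at least 3 oocytes each.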

[3] = displacement of [3H]flumazenil 0.5 nM, HEK293 cells expressing human receptors, mean of two determinations, read-out: Ki h-GABA-A α5β3γ2
[4] = % modulation of GABA EC20 = 100*(Fold increase−1), Xenopus oocytes
[5] = Xenopus oocytes, GABA EC20, test compound at approx. 30 fold its Ki

| Compound | Ki (h-GABA-A α5β3γ2 [1]; [3]) [nM] | Efficacy (GABA) % (h-GABA-A α5β3γ2 [2]; [4]) [%] | Fold increase h-GABA-A α5β3γ2 oocyte (h-GABA-A α5β3γ2 [2]; [5]) | Ki (h-GABA-A α5β3γ2 [1]; reference compounds, GABAA receptor α5β3γ2, read-out: Ki α5-human) [nM] | Efficacy (GABA) % (h-GABA-A α5β3γ2 [2]; reference compounds, % modulation of GABA EC20) [%] | Fold increase h-GABA-A α5β3γ2 oocyte (h-GABA-A α5β3γ2 [2]; reference compounds, GABAA α5β3γ2 overexpressing oocytes, GABA EC20) |
| --- | --- | --- | --- | --- | --- | --- |
| CCC[C@@H](CO)NC(=O)c1ccc(OCc2c(-c3cnc(C)c(F)c3)noc2C)nc1 [Example 145, 6-((3-(5-fluoro-6-methyl-3-pyridyl)-5-methyl-isoxazol-4-yl)methoxy)-N-((1S)-1-(hydroxymethyl)butyl)pyridine-3-carboxamide] | 29 | 144 | 2.44 |  |  |  |
| CCc1onc(-c2ccc(C)nc2)c1COc1ccc(C(=O)NC2CC2)nn1 [Example 123, N-cyclopropyl-6-((5-ethyl-3-(6-methylpyridin-3-yl)isoxazol-4-yl)methoxy)pyridazine-3-carboxamide] | 22.1 | 106 | 2.06 |  |  |  |
| Cc1ccc(-c2noc(C)c2COc2ccc(C(=O)N[C@H]3C[C@@H](OCC(F)F)C3)nn2)cn1 [Example 169, cis-N-3-((2,2-difluoroethoxy)cyclobutyl)-6-((5-methyl-3-(6-methylpyridin-3-yl)isoxazol-4-yl)methoxy)pyridazine-3-carboxamide] | 18.9 | 66 | 1.66 |  |  |  |
| Cc1ccc(-c2noc(C)c2COc2ccc(C(=O)N3CCOCC3)nn2)cn1 [Example 60, (6-((5-methyl-3-(6-methylpyridin-3-yl)isoxazol-4-yl)methoxy)pyridazin-3-yl)(morpholino)methanone] | 93.4 | 99 | 1.99 |  |  |  |
| CCC[C@@H](CO)N1Cc2cc(OCc3c(-c4ccc(C)nc4)noc3C)ncc2C1=O [Example 13, (S)-2-(1-hydroxypentan-2-yl)-6-((5-methyl-3-(6-methylpyridin-3-yl)isoxazol-4-yl)methoxy)-1H-pyrrolo[3,4-c]pyridin-3(2H)-one] | 14.4 | 158 | 2.58 |  |  |  |
| Cc1onc(-c2ccc(C3CC3)nc2)c1COc1ccc(C(=O)NC2CCOCC2)cn1 [Example 128, 6-((3-(6-cyclopropyl-3-pyridyl)-5-methyl-isoxazol-4-yl)methoxy)-N-tetrahydropyran-4-yl-pyridine-3-carboxamide] | 6.1 | 107 | 2.07 |  |  |  |
| Cc1ccc(-c2noc(C)c2COc2cc3c(cn2)C(=O)N(C2CC4(COC4)C2)C3)cn1 [Example 117, 6-((5-methyl-3-(6-methylpyridin-3-yl)isoxazol-4-yl)methoxy)-2-(2-oxaspiro[3.3]heptan-6-yl)-1H-pyrrolo[3,4-c]pyridin-3(2H)-one] | 15.6 | 99 | 1.99 |  |  |  |
| Cc1ccc(-c2noc(C)c2COc2ccc(C(=O)NC(C)(C)CCO)nn2)cn1 [Example 79, N-(4-hydroxy-2-methylbutan-2-yl)-6-((5-methyl-3-(6-methylpyridin-3-yl)isoxazol-4-yl)methoxy)pyridazine-3-carboxamide] | 11.3 | 96 | 1.96 |  |  |  |
| Cc1ccc(-c2noc(C)c2COc2ccc(C(=O)N[C@H]3CCOC3)nn2)cn1 [Example 87, (S)-6-((5-methyl-3-(6-methylpyridin-3-yl)isoxazol-4-yl)methoxy)-N-(tetrahydrofuran-3-yl)pyridazine-3-carboxamide] | 8.1 | 80 | 1.8 |  |  |  |
| Cc1ccc(-c2noc(C)c2COc2ccc(C(=O)N[C@@H]3CCCOC3)nn2)cn1 [Example 99, (R)-6-((5-methyl-3-(6-methylpyridin-3-yl)isoxazol-4-yl)methoxy)-N-(tetrahydropyran-3-yl)pyridazine-3-carboxamide] | 6.8 | 73 | 1.73 |  |  |  |
| CCO[C@H]1C[C@@H](NC(=O)c2ccc(OCc3c(-c4ccc(C)nc4)noc3C)nn2)C1 [Example 171, cis-N-(3-ethoxycyclobutyl)-6-((5-methyl-3-(6-methylpyridin-3-yl)isoxazol-4-yl)methoxy)pyridazine-3-carboxamide] | 18.1 | 72 | 1.72 |  |  |  |
| Cc1ccc(-c2noc(C)c2COc2ccc(C(=O)NC3(C)CCOCC3)cn2)cn1 [Example 106, 6-((5-methyl-3-(6-methylpyridin-3-yl)isoxazol-4-yl)methoxy)-N-(4-methyltetrahydropyran-4-yl)nicotinamide] | 60.3 | 64 | 1.64 |  |  |  |
| CO[C@H]1CC[C@@H](NC(=O)c2ccc(OCc3c(-c4ccc(C)nc4)noc3C)nn2)CC1 [Example 158, cis-N-(4-methoxycyclohexyl)-6-((5-methyl-3-(6-methylpyridin-3-yl)isoxazol-4-yl)methoxy)pyridazine-3-carboxamide] | 18.2 | 79 | 1.79 |  |  |  |
| Cc1ccc(-c2noc(C)c2COc2ccc(C(=O)NC(C)(C)C(F)(F)F)nn2)cn1 [Example 64, 6-((5-methyl-3-(6-methylpyridin-3-yl)isoxazol-4-yl)methoxy)-N-(1,1,1-trifluoro-2-methylpropan-2-yl)pyridazine-3-carboxamide] | 17.6 | 86 | 1.86 |  |  |  |
| Cc1ccc(-c2noc(C)c2COc2ccc(C(=O)N3CCC(F)(F)CC3)nn2)cn1 [Example 53, (4,4-difluoropiperidin-1-yl)(6-((5-methyl-3-(6-methylpyridin-3-yl)isoxazol-4-yl)methoxy)pyridazin-3-yl)methanone] | 95.8 | 80 | 1.8 |  |  |  |
| Cc1ccc(-c2noc(C)c2COc2cnc(C(=O)NC3CCOCC3)cn2)cn1 [Example 15, 5-((5-methyl-3-(6-methylpyridin-3-yl)isoxazol-4-yl)methoxy)-N-(tetrahydropyran-4-yl)pyrazine-2-carboxamide] | 19.8 | 55 | 1.55 |  |  |  |
| Cc1ccc(-c2noc(C)c2COc2cnc(C(=O)NCC(F)(F)F)cn2)cn1 [Example 78, 5-((5-methyl-3-(6-methyl-3-pyridyl)isoxazol-4-yl)methoxy)-N-(2,2,2-trifluoroethyl)pyrazine-2-carboxamide] | 24.3 | 42 | 1.42 |  |  |  |
| Cc1onc(-c2ccc(Cl)nc2)c1COc1ccc(C(=O)NC2CCOCC2)nn1 [Example 159, 6-((3-(6-chloropyridin-3-yl)-5-methylisoxazol-4-yl)methoxy)-N-(tetrahydropyran-4-yl)pyridazine-3-carboxamide] | 23.7 | 55 | 1.55 |  |  |  |
| CCC[C@@H](CO)NC(=O)c1ccc(OCc2c(-c3ccc(C)nc3)noc2C(F)F)nc1 [Example 125, 6-((5-(difluoromethyl)-3-(6-methyl-3-pyridyl)isoxazol-4-yl)methoxy)-N-((1S)-1-(hydroxymethyl)butyl)pyridine-3-carboxamide] | 59 | 142 | 2.42 |  |  |  |
| Cc1ccc(-c2noc(C)c2COc2ccc(C(=O)N[C@]3(C)CCOC3)nn2)cn1 (single isomer, unassigned) [Example 82] | 12.4 | 101 | 2.01 |  |  |  |
| Cc1ccc(-c2noc(C)c2COc2ccc(C(=O)NC(C)(C)C)nn2)cn1 [Example 41, N-tert-butyl-6-((5-methyl-3-(6-methylpyridin-3-yl)isoxazol-4-yl)methoxy)pyridazine-3-carboxamide] | 19.4 | 104 | 2.04 |  |  |  |
| Cc1ccc(-c2noc(C)c2COc2ccc(C(=O)NC(C)(C)CO)nn2)cn1 [Example 32] | 8.5 | 79 | 1.79 |  |  |  |
| Cc1ccc(-c2noc(C)c2COc2ccc(C(=O)NCC3(C)COC3)nn2)cn1 [Example 49, 6-((5-methyl-3-(6-methylpyridin-3-yl)isoxazol-4-yl)methoxy)-N-((3-methyloxetan-3-yl)methyl)pyridazine-3-carboxamide] | 13.6 | 70 | 1.7 |  |  |  |
| Cc1ccc(-c2noc(C)c2COc2ccc(C(=O)N[C@H]3C[C@H]4CC[C@H]3O4)nn2)cn1 (single isomer, unassigned) [Example 188] | 20.7 | 71 | 1.71 |  |  |  |
| CO[C@H]1CC[C@H](NC(=O)c2ccc(OCc3c(-c4ccc(C)nc4)noc3C)nn2)CC1 [Example 154, trans-N-(4-methoxycyclohexyl)-6-((5-methyl-3-(6-methylpyridin-3-yl)isoxazol-4-yl)methoxy)pyridazine-3-carboxamide] | 10 | 97 | 1.97 |  |  |  |
| Cc1onc(-c2ccccn2)c1COc1ccc(C(=O)NC2CCOCC2)cn1 [RO-272, reference compound] |  |  |  | 1 | −32 | 0.68 |
| Cc1ncc(-c2noc(C)c2COc2ccc(C(=O)NC(C)C)cn2)cc1F [Example 144, 6((3-(5-fluoro-6-methyl-3-pyridyl)-5-methyl-isoxazol-4-yl)methoxy)-N-isopropyl-pyridine-3-carboxamide] | 13.6 | 15 | 1.15 |  |  |  |
